Several values for one entry are separate records, joined by “and”; a condition that tells them apart may be missing. Identical values can stand only once. Like-named read-outs stand apart in the source and are kept apart here.
Assays:
[1] = test system: AT1-KO T. b. brucei strain (derived from BS221); assay: Susceptibility assay, TbAT1-KO (derived from BS221); format: cell-based, Trypanosoma brucei brucei
Experimental: (§1) Susceptibility assays with NY-SM[51], BS221[48] and TbAT1-KO[48] (derived from BS221) cells were performed using 10 concentrations of a 4-fold compound dilution series starting at 64 µM. Parasites were seeded at 4 × 10^3 parasites per well and exposed to drug compound for 72 h, after which resazurin (final concentration of 10 µg mL^−1) was added to the plates. Fluorescence intensities were determined after 6 h.

T. brucei NY-SM cells = assay: Susceptibility assay, NY-SM cells; format: cell-based, Trypanosoma brucei brucei
Experimental: as §1

[2] = test system: T. b. brucei AnTAR1.1 PPYRE9; assay: Mouse model of stage 2 HAT (BLI, parasitaemia, SL-RNA qPCR); format: in vivo
Experimental: […] Treatment was initiated at 21 dpi. […] Mice were injected i.p. with […] of D-luciferin and anaesthetised using isoflurane. The luminescent signal was acquired from both the dorsal and ventral side of the animals. […] Animals subjected to the different treatment schemes (from 4 wpi) were additionally imaged over a 5 min exposure time for enhanced sensitivity. […] Tissues were weighed and RNA was extracted using the RNeasy Plus Mini Kit (Qiagen) according to the manufacturer’s recommendations. […] A list of primers used is provided in the Supplementary Methods section of the Supplementary Information. BLI images from the IVIS Spectrum In Vivo Imaging System (Perkin Elmer) were analysed using LivingImage v4.3.1. SoftWoRx suite 2.0 for microscopy (image deconvolution), then processing using the Fiji software.

Nc1ncnc2c1ccn2[C@@H]1O[C@H](CO)C[C@H]1O [Compound 9, 3’-deoxytubercidin]
Inhibition (%) ([1]; TbAT1KO, 0.000976563 µM): 0% and 2% | Inhibition (%) ([1]; TbAT1KO, 0.00390625 µM): 5% and 10% and 0% | Inhibition (%) ([1]; TbAT1KO, 0.25 µM): 89% and 94% and 60% and 62% | Inhibition (%) ([1]; TbAT1KO, 64 µM): 100% | inhibition at 1 µM ([1]; Trypanosoma brucei, TbAT1KO, 1 µM): 98% | inhibition at 4 µM ([1]; Trypanosoma brucei, TbAT1KO, 4 µM): 99% | inhibition at 16 µM ([1]; Trypanosoma brucei, TbAT1KO, 16 µM): 99% | inhibition at 64 µM ([1]; Trypanosoma brucei, TbAT1KO, 64 µM): 99% | EC50 ([1]; Trypanosoma brucei, read-out: EC50 upon AT1-KO): 150 ± 30 nM | IC50 (T. brucei NY-SM cells; NYsm parental cells, single replicates, read-out: IC50): 7.98 nM and 7.87 nM | Inhibition (%) (T. brucei NY-SM cells; NYsm, 0.000244141 µM): 0% and 3.5% and 5.32% and 2.3% | Inhibition (%) (T. brucei NY-SM cells; NYsm, 0.000976563 µM): 5.56% and 15% and 14% and 7% | Inhibition (%) (T. brucei NY-SM cells; NYsm, 0.00390625 µM): 52% and 44% | Inhibition (%) (T. brucei NY-SM cells; NYsm, 0.015625 µM): 98% | Inhibition (%) (T. brucei NY-SM cells; NYsm, 1 µM): 98% | IC50 (T. brucei NY-SM cells; Trypanosoma brucei, NYsm parental cells, single replicates, read-out: IC50): 7.92 nM | inhibition at 0.00390625 µM (T. brucei NY-SM cells; Trypanosoma brucei, NYsm, 0.00390625 µM): 53% | inhibition at 0.015625 µM (T. brucei NY-SM cells; Trypanosoma brucei, NYsm, 0.015625 µM): 99% | inhibition at 0.0625 µM (T. brucei NY-SM cells; Trypanosoma brucei, NYsm, 0.0625 µM): 99% | inhibition at 0.25 µM (T. brucei NY-SM cells; Trypanosoma brucei, NYsm, 0.25 µM): 100% | inhibition at 1 µM (T. brucei NY-SM cells; Trypanosoma brucei, NYsm, 1 µM): 100% | inhibition at 4 µM (T. brucei NY-SM cells; Trypanosoma brucei, NYsm, 4 µM): 100% | inhibition at 16 µM (T. brucei NY-SM cells; Trypanosoma brucei, NYsm, 16 µM): 100% | inhibition at 64 µM (T. brucei NY-SM cells; Trypanosoma brucei, NYsm, 64 µM): 100% | IC50 (T. brucei NY-SM cells; Trypanosoma brucei, single determinations, read-out: IC50, NYsm): 5.2 nM | IC50 (T. brucei NY-SM cells; single determinations, read-out: IC50, NYsm): 5.9 nM and 6.6 nM and 3.6 nM and 4.6 nM and 3.7 nM and 6.4 nM | RLU data, individual mice ([2]; 6.25 mg/kg SID, 3 wpi): 1622000 RLU and 3182000 RLU and 2182000 RLU | RLU data, individual mice ([2]; 6.25 mg/kg SID, 4 wpi): 193100 RLU and 167700 RLU and 117800 RLU | RLU data, individual mice ([2]; 6.25 mg/kg SID, 5 wpi): 198100 RLU and 192400 RLU and 180700 RLU | RLU data, individual mice ([2]; 6.25 mg/kg SID, 6 wpi): 97950 RLU and 93770 RLU and 90330 RLU | RLU data, individual mice ([2]; 6.25 mg/kg SID, 7 wpi): 113500 RLU and 105600 RLU and 105900 RLU | RLU data, individual mice ([2]; 6.25 mg/kg SID, 8 wpi): 131900 RLU and 113000 RLU and 102800 RLU | RLU data, individual mice ([2]; 6.25 mg/kg SID, 9 wpi): 108500 RLU and 102400 RLU and 89250 RLU | RLU data, individual mice ([2]; 6.25 mg/kg SID, 11 wpi): 85510 RLU and 79310 RLU and 77130 RLU | RLU data, individual mice ([2]; 6.25 mg/kg SID, 12 wpi): 86540 RLU and 80590 RLU and 72940 RLU | RLU data, individual mice ([2]; 6.25 mg/kg SID, 14 wpi): 72880 RLU and 70430 RLU and 75490 RLU | RLU data, individual mice ([2]; 12.5 mg/kg SID, 3 wpi): 11680000 RLU and 7405000 RLU | RLU data, individual mice ([2]; 12.5 mg/kg SID, 4 wpi): 129800 RLU and 121500 RLU | RLU data, individual mice ([2]; 12.5 mg/kg SID, 5 wpi): 117000 RLU and 123200 RLU | RLU data, individual mice ([2]; 12.5 mg/kg SID, 6 wpi): 100200 RLU and 88860 RLU | RLU data, individual mice ([2]; 12.5 mg/kg SID, 7 wpi): 107000 RLU and 110100 RLU | RLU data, individual mice ([2]; 12.5 mg/kg SID, 8 wpi): 112000 RLU and 128000 RLU | RLU data, individual mice ([2]; 12.5 mg/kg SID, 9 wpi): 99900 RLU and 94080 RLU | RLU data, individual mice ([2]; 12.5 mg/kg SID, 11 wpi): 77540 RLU and 81340 RLU | RLU data, individual mice ([2]; 12.5 mg/kg SID, 12 wpi): 79330 RLU and 83380 RLU | RLU data, individual mice ([2]; 12.5 mg/kg SID, 14 wpi): 72090 RLU and 77840 RLU | RLU data, individual mice ([2]; 25 mg/kg BID, 3 wpi): 4672000 RLU and 30200000 RLU | RLU data, individual mice ([2]; 25 mg/kg BID, 4 wpi): 134400 RLU and 112900 RLU | RLU data, individual mice ([2]; 25 mg/kg BID, 5 wpi): 112900 RLU and 115900 RLU | RLU data, individual mice ([2]; 25 mg/kg BID, 6 wpi): 102800 RLU and 99010 RLU | RLU data, individual mice ([2]; 25 mg/kg BID, 7 wpi): 102400 RLU and 91660 RLU | RLU data, individual mice ([2]; 25 mg/kg BID, 8 wpi): 110100 RLU and 102600 RLU | RLU data, individual mice ([2]; 25 mg/kg BID, 9 wpi): 102800 RLU and 96280 RLU | RLU data, individual mice ([2]; 25 mg/kg BID, 11 wpi): 72280 RLU and 73020 RLU | RLU data, individual mice ([2]; 25 mg/kg BID, 12 wpi): 82420 RLU and 78930 RLU | RLU data, individual mice ([2]; 25 mg/kg BID, 14 wpi): 77680 RLU and 76600 RLU | RLU data, individual mice ([2]; 25 mg/kg SID, 3 wpi): 2495000 RLU and 617400 RLU and 13720000 RLU | RLU data, individual mice ([2]; 25 mg/kg SID, 4 wpi): 173900 RLU and 151500 RLU and 120200 RLU | RLU data, individual mice ([2]; 25 mg/kg SID, 5 wpi): 135900 RLU and 123400 RLU and 110100 RLU | RLU data, individual mice ([2]; 25 mg/kg SID, 6 wpi): 109500 RLU and 97640 RLU and 94120 RLU

From article PMC6895180 (Nature Communications, 2019)
